Data taken from ChEMBL document CHEMBL1151544, “Biarylcarboxamide inhibitors of phosphodiesterase IV and tumor necrosis factor-” (Bioorg Med Chem Lett, 1997).

What was measured:
[1] = Ability to block the release of TNF-alpha in human monocytes; format: functional, cell-based
Homo sapiens = organism: Homo sapiens; experiment: Ability to block the release of TNF-alpha in human whole blood; format: functional
Phosphodiesterase 4 = Phosphodiesterase 4 (Homo sapiens, UniProt P27815+Q08499+Q07343+Q08493); experiment: Tested for its ability to inhibit the hydrolysis of cAMP by human monocyte cytosol phosphodiesterase; format: protein assay
U-937 = experiment: Ability to elevate intracellular levels of cAMP in human U937 cells; format: functional, cell-based
Mus musculus [2] = experiment: Inhibition of LPS stimulated TNF-alpha release in mice at 1 mg/kg; format: functional
Mus musculus [3] = experiment: Inhibition of LPS stimulated TNF-alpha release in mice at 10 mg/kg; format: functional

**Q.** With `COc1ccc(-c2ccc(C(N)=O)c(C)c2)cc1OC1CCCC1` as the compound, how does the IC50 [1] read?
**A.** The IC50 was 0.19 µM.

**Q.** With `COc1ccc(-c2ccc(C(N)=O)cc2)cc1O[C@H]1CC2CCC1C2` (stereo not given in full) as the compound, how does the IC50 [1] read?
**A.** The IC50 was 0.024 µM.

**Q.** What about the IC50 (Homo sapiens) of the same compound?
**A.** The IC50 was 0.18 µM.

**Q.** What about the IC50 (Phosphodiesterase 4) of the same compound?
**A.** Its IC50 is 3.61 µM.

**Q.** And the IC50 (U-937)?
**A.** Its IC50 is 0.022 µM.

**Q.** Which IC50 [1] does the source give for `COc1ccc(-c2ncc(C(N)=O)cc2Cl)cc1OC1CCCC1` here?
**A.** The IC50 was 0.36 µM.

**Q.** With `COc1ccc(-c2ccc(C(N)=O)cc2)cc1OC1CCCC1` as the compound, how does the IC50 [1] read?
**A.** Its IC50 is 0.026 µM.

**Q.** What about the IC50 (Homo sapiens) of the same compound?
**A.** The IC50 was 0.45 µM.

**Q.** And the IC50 (Phosphodiesterase 4)?
**A.** Its IC50 is 5.91 µM.

**Q.** And the IC50 (U-937)?
**A.** Its IC50 is 0.081 µM.

**Q.** For `COc1ccc(-c2ccc(C(N)=O)cc2Cl)cc1OC1CCCC1`, which IC50 [1] is on record?
**A.** Its IC50 is 0.26 µM.

**Q.** With `COc1ccc(-c2ccc(C(N)=O)nc2)cc1O[C@H]1CC2CCC1C2` (stereo not given in full) as the compound, how does the IC50 [1] read?
**A.** The IC50 was 0.009 µM.

**Q.** What about the IC50 (Homo sapiens) of the same compound?
**A.** Its IC50 is 0.14 µM.

**Q.** And the IC50 (Phosphodiesterase 4)?
**A.** Its IC50 is 1.07 µM.

**Q.** What about the IC50 (U-937) of the same compound?
**A.** Its IC50 is 0.049 µM.

**Q.** With `COc1ccc(-c2ccc(C(N)=O)cc2)cc1OC1Cc2ccccc2C1` as the compound, how does the IC50 [1] read?
**A.** Its IC50 is 0.32 µM.

**Q.** With `COc1ccc(-c2ccc(C(=O)O)cc2)cc1O[C@H]1CC2CCC1C2` (stereo not given in full) as the compound, how does the IC50 [1] read?
**A.** The IC50 was 0.14 µM.

**Q.** With `COc1ccc(-c2ccc(C(N)=O)cn2)cc1OC1CCCC1` as the compound, how does the IC50 [1] read?
**A.** Its IC50 is 0.08 µM.

**Q.** With `COc1ccc(-c2ccc(C(N)=O)nc2)cc1OCCc1ccccc1` as the compound, how does the IC50 [1] read?
**A.** Its IC50 is 0.18 µM.

**Q.** Which IC50 [1] does the source give for `COc1ccc(-c2ccc(C(N)=O)nc2)cc1OCCCc1ccccc1` here?
**A.** The IC50 was 2.31 µM.

**Q.** With `COc1ccc(-c2ccc(C(N)=O)c(Cl)c2)cc1OC1CCCC1` as the compound, how does the IC50 [1] read?
**A.** The IC50 was 0.082 µM.

**Q.** For `COc1ccc(-c2ccc(C(N)=O)nc2)cc1OC1CCCC1`, which IC50 [1] is on record?
**A.** Its IC50 is 0.037 µM.

**Q.** What about the IC50 (Homo sapiens) of the same compound?
**A.** Its IC50 is 0.18 µM.

**Q.** What about the inhibition in vivo at 1 mg/kg (Mus musculus [2]) of the same compound?
**A.** Its inhibition in vivo at 1 mg/kg is 65.2%.

**Q.** What about the IC50 (Phosphodiesterase 4) of the same compound?
**A.** The IC50 was 0.34 µM.

**Q.** What about the IC50 (U-937) of the same compound?
**A.** The IC50 was 0.046 µM.

**Q.** For `COc1ccc(-c2ccc(C(N)=O)nc2)cc1OC1Cc2ccccc2C1`, which IC50 [1] is on record?
**A.** Its IC50 is 0.12 µM.

**Q.** Which IC50 [1] does the source give for `COc1ccc(-c2ccc(C(N)=O)c(C(F)(F)F)c2)cc1OC1CCCC1` here?
**A.** The IC50 was 1.17 µM.

**Q.** For `COc1ccc([C@]2(C#N)CC[C@@H](C(=O)O)CC2)cc1OC1CCCC1` [CILOMILAST], which IC50 [1] is on record?
**A.** Its IC50 is 0.29 µM.

**Q.** What about the IC50 (Homo sapiens) of the same compound?
**A.** Its IC50 is 6.12 µM.

**Q.** What about the inhibition in vivo at 10 mg/kg (Mus musculus [3]) of the same compound?
**A.** The inhibition in vivo at 10 mg/kg was 59.4%.

**Q.** What about the IC50 (U-937) of the same compound?
**A.** The IC50 was 3.63 µM.

**Q.** With `COc1ccc(C2CNC(=O)C2)cc1OC1CCCC1` (stereo not given) [ROLIPRAM] as the compound, how does the IC50 [1] read?
**A.** Its IC50 is 0.31 µM.

**Q.** And the inhibition in vivo at 1 mg/kg (Mus musculus [2])?
**A.** Its inhibition in vivo at 1 mg/kg is 68%.

**Q.** What about the IC50 (U-937) of the same compound?
**A.** Its IC50 is 1.23 µM.
